In test [1] the target is T1, human carboxylesterase 2 (CES2) (Homo sapiens, UniProt O00748).
T1 sequence (O00748 27-559): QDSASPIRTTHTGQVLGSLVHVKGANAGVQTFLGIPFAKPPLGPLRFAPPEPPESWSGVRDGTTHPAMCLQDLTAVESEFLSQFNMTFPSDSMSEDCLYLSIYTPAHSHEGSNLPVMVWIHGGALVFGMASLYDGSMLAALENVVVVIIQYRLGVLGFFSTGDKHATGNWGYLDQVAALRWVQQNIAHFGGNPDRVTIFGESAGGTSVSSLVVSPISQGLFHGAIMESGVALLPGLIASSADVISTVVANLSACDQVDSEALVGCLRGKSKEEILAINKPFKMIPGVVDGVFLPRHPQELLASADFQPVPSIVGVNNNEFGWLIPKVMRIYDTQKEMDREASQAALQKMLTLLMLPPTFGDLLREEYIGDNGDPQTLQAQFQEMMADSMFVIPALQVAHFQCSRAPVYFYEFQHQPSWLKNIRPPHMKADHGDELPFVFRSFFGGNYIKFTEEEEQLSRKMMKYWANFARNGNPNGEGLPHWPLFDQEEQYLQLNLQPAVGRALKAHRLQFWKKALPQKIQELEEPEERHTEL
Description: Inhibition of CES2-mediated FD. In kind it is biochemical. As to conditions: for selectivity for CES2 over CES1 (in words): CES2 versus CES1 IC50.

The target of test [2] is T2, human carboxylesterase 1 (CES1) (Homo sapiens, UniProt P23141).
T2 sequence (P23141 18-567): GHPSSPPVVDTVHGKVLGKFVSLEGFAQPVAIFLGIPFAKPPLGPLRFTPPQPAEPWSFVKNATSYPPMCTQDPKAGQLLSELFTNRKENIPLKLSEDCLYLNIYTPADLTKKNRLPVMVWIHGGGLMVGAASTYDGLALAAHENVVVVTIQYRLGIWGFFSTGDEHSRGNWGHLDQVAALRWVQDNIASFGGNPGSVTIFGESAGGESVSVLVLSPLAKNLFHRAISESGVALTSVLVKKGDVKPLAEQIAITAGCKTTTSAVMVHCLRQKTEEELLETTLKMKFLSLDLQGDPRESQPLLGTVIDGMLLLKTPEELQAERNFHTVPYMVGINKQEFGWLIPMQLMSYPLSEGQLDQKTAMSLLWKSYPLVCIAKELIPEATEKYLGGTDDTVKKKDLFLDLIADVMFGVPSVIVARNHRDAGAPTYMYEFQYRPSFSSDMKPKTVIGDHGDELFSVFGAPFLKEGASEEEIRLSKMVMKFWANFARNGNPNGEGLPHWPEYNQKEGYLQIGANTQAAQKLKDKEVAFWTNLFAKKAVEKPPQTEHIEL
Description: Inhibition of CES1-mediated DME. It counts as biochemical.

With `Cc1ccccc1C(c1c(C)[nH]c2ccccc12)c1c(C)[nH]c2ccccc12` [4b], the IC50 in test [1] worked out at 560 ± 160 nM. Same read-out and setting: with `Cc1cccc(C(c2c(C)[nH]c3ccccc23)c2c(C)[nH]c3ccccc23)c1` [4c] the figure was 340 ± 91 nM. Regarding `Cc1ccc(C(c2c(C)[nH]c3ccccc23)c2c(C)[nH]c3ccccc23)cc1` [4d], the midpoint of inhibition in test [1], the IC50, lay at 280 ± 27 nM. As for `COc1ccccc1C(c1c(C)[nH]c2ccccc12)c1c(C)[nH]c2ccccc12` [4e], 200 ± 44 nM corresponded to half-maximal inhibition in test [1] (IC50). As for `COc1cccc(C(c2c(C)[nH]c3ccccc23)c2c(C)[nH]c3ccccc23)c1` [4f], the IC50 in test [1] was 1280 ± 240 nM. For the molecule `COc1ccc(C(c2c(C)[nH]c3ccccc23)c2c(C)[nH]c3ccccc23)cc1` [4g], in test [1], the IC50 was 150 ± 32 nM and the “selectivity for CES2 over CES1 (in words)” value is “good selectivity over CES1”. In addition, half-maximal inhibition in test [2] (IC50) was put at 2900 ± 240 nM. With `Cc1[nH]c2ccccc2c1C(c1ccccc1Cl)c1c(C)[nH]c2ccccc12` [4h], half-maximal inhibition in test [1] (IC50) required 570 ± 86 nM.

`Cc1[nH]c2ccccc2c1C(c1cccc(Cl)c1)c1c(C)[nH]c2ccccc12` [4i] registered an IC50 in test [1] of 1230 ± 370 nM.

In turn, `Cc1[nH]c2ccccc2c1C(c1ccc(Cl)cc1)c1c(C)[nH]c2ccccc12` [4j] returned an IC50 in test [1] of 840 ± 230 nM. Regarding `Cc1[nH]c2ccccc2c1C(c1ccccc1Br)c1c(C)[nH]c2ccccc12` [4k], the IC50 in test [1] was found to be 350 ± 91 nM. Take `Cc1[nH]c2ccccc2c1C(c1cccc(Br)c1)c1c(C)[nH]c2ccccc12` [4l]: 3170 ± 810 nM corresponded to half-maximal inhibition in test [1] (IC50). On the same count and under the same terms, with `Cc1[nH]c2ccccc2c1C(c1ccc(Br)cc1)c1c(C)[nH]c2ccccc12` [4m] the figure was 1210 ± 280 nM.

Turning to `Cc1[nH]c2ccccc2c1C(c1ccccc1[N+](=O)[O-])c1c(C)[nH]c2ccccc12` [4n], in test [1], the IC50 is 190 ± 45 nM and the “selectivity for CES2 over CES1 (in words)” value was “good selectivity over CES1”. In test [2], the IC50 was 3680 ± 430 nM. For `Cc1[nH]c2ccccc2c1C(c1cccc([N+](=O)[O-])c1)c1c(C)[nH]c2ccccc12` [4o], in test [1], 350 ± 110 nM corresponded to half-maximal inhibition (IC50). On to `Cc1[nH]c2ccccc2c1C(c1ccc([N+](=O)[O-])cc1)c1c(C)[nH]c2ccccc12` [4p], for which it took 1220 ± 200 nM to reach half-maximal inhibition in test [1] (IC50).

As usually defined, the IC50 is the concentration that inhibits the measured activity by half.

For the origin of these results see publication PMC9076199 (RSC Advances, 2019).
